# Source: the supplement of paper PMC11208160
# Assay: recombinant UMI read abundance after kanamycin selection (control-corrected) (log10(CPM+1)); higher = more efficient recombination; extreme values may be limits of the assay; sequences stand for … in AGTGCAGAGAAAATCGGCCAGTTTTCTCTGCCTGCAGTCCGCATGCCGTGGGACCCCTTGGGTTCTAACCTGTTGCCTAGATTTATGCAGCGGACTGCCTTTCTCCCAAAGTGATAAACCGG…AGGTTGGTTTCACT; site = the 11-nt donor
# Outline: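 Values, expressed as log10(CPM+1), derive from recombinant UMI counts converted to CPM, averaged across replicates and scaled by control-derived factors. Plating was with IPTG (0.07 mM) plus kanamycin or unselected, two replicates each. The screen pooled donor and donor-binding-loop pairs for the IS621 bridge recombinase in Escherichia coli.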
# 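Also: IS621 bridge recombinase in Escherichia coli cells against a fixed T5 target plasmid.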
row,Sequence,recombinant UMI read abundance (log10)
1,TGCGTGTCATGGACCGGTTTTCCCGGTAATCCGTATTTGCC (site TGCGTGTCTGG),2.33
2,TGCTATACATGGACCGGTTTTCCCGGTAATCCGTATTTGAT (site TGCTATACTAT),0.285
3,TGCTCAGCATGGACCGGTTTTCCCGGTAATCCGTATTTGTT (site TGCTCAGCTAA),0
4,TGCTCCCCATGGACCGGTTTTCCCGGTAATCCGTATTTGTA (site TGATCCCCTTA),0.0151
5,TGCTCCCCATGGACCGGTTTTCCCGGTAATCCGTATTTGTA (site TGCTCCCCTTA),0.00702
6,TGCTCCCCATGGACCGGTTTTCCCGGTAATCCGTATTTGTA (site TGGTCCCCTTA),0.00608
7,TGCTCCCCATGGACCGGTTTTCCCGGTAATCCGTATTTGTA (site TGTTCCCCTTA),0.00224
8,TGCTCCGCATGGACCGGTTTTCCCGGTAATCCGTATTTGTG (site TGCTCCGCTCA),0.265
9,TGCTGCACATGGACCGGTTTTCCCGGTAATCCGTATTTGAA (site TGCTGCACTTT),0.0328
10,TGCTGCTCATGGACCGGTTTTCCCGGTAATCCGTATTTGGT (site TGCTGCTCTAC),0.182
11,TGCTTAGCATGGACCGGTTTTCCCGGTAATCCGTATTTGTC (site TGCTTAGCTGA),0
12,TGCTTGACATGGACCGGTTTTCCCGGTAATCCGTATTTGCT (site TACTTGACTAG),1.51
13,TGCTTGACATGGACCGGTTTTCCCGGTAATCCGTATTTGCT (site TCCTTGACTAG),0.0059
14,TGCTTGACATGGACCGGTTTTCCCGGTAATCCGTATTTGCT (site TGCTTGACTAG),0.922
15,TGCTTGACATGGACCGGTTTTCCCGGTAATCCGTATTTGCT (site TTCTTGACTAG),0.00367
16,TGCTTGACATGGACCGGTTTTCCCGGTAATCCGTATTTGGA (site TGCTTGACTTC),0.355
17,TGCTTGGCATGGACCGGTTTTCCCGGTAATCCGTATTTGAA (site TGCTTGGCTTT),0.485
18,TGCTTGGCATGGACCGGTTTTCCCGGTAATCCGTATTTGGT (site TGCTAGGCTAC),0.011
19,TGCTTGGCATGGACCGGTTTTCCCGGTAATCCGTATTTGGT (site TGCTCGGCTAC),0

row,Sequence,recombinant UMI read abundance (log10)
1,TGCTTGGCATGGACCGGTTTTCCCGGTAATCCGTATTTGGT (site TGCTGGGCTAC),0.155
2,TGCTTGGCATGGACCGGTTTTCCCGGTAATCCGTATTTGGT (site TGCTTGGCTAC),0.0115
3,TGGAAAACATGGACCGGTTTTCCCGGTAATCCGTATTTGCA (site AGGAAGACTTG),0.218
4,TGGAAAACATGGACCGGTTTTCCCGGTAATCCGTATTTGCA (site TGGAAAACTTG),2.24
5,TGGACAGCATGGACCGGTTTTCCCGGTAATCCGTATTTGCT (site TGGACAGCTAG),2.26
6,TGGACATCATGGACCGGTTTTCCCGGTAATCCGTATTTGCT (site AGGACATCTAG),1.44
7,TGGACATCATGGACCGGTTTTCCCGGTAATCCGTATTTGCT (site CGGACATCTAG),2.04
8,TGGACATCATGGACCGGTTTTCCCGGTAATCCGTATTTGCT (site GGGACATCTAG),0.348
9,TGGACATCATGGACCGGTTTTCCCGGTAATCCGTATTTGCT (site TGGACATCTAG),1.69
10,TGGACCACATGGACCGGTTTTCCCGGTAATCCGTATTTGAT (site TGGACCACTAT),0.721
11,TGGAGCGCATGGACCGGTTTTCCCGGTAATCCGTATTTGGG (site TGGAGCGCTCC),0.0132
12,TGGAGTTCATGGACCGGTTTTCCCGGTAATCCGTATTTGTA (site TGGAGTTCTTA),1.31
13,TGGATTTCATGGACCGGTTTTCCCGGTAATCCGTATTTGCA (site TGGATTTCTTG),0.673
14,TGGCATCCATGGACCGGTTTTCCCGGTAATCCGTATTTGTT (site CGGAATCCTAA),0
15,TGGCATCCATGGACCGGTTTTCCCGGTAATCCGTATTTGTT (site TGGCATCCTAA),0.165
16,TGGCCACCATGGACCGGTTTTCCCGGTAATCCGTATTTGTT (site TGGCCACCTAA),0.0258
17,TGGCCAGCATGGACCGGTTTTCCCGGTAATCCGTATTTGGC (site TGGCCAGCTGC),0
18,TGGCCAGCATGGACCGGTTTTCCCGGTAATCCGTATTTGGC (site TGGCCCGCTGC),0
19,TGGCCAGCATGGACCGGTTTTCCCGGTAATCCGTATTTGGC (site TGGCCGGCTGC),0

row,Sequence,recombinant UMI read abundance (log10)
1,TGGCCAGCATGGACCGGTTTTCCCGGTAATCCGTATTTGGC (site TGGCCTGCTGC),0.017
2,TGGCCGACATGGACCGGTTTTCCCGGTAATCCGTATTTGGC (site TGGCCGACTGC),0
3,TGGCCGACATGGACCGGTTTTCCCGGTAATCCGTATTTGGC (site TGGCCGCCTGC),0
4,TGGCCGACATGGACCGGTTTTCCCGGTAATCCGTATTTGGC (site TGGCCGGCTGC),0.00648
5,TGGCCGACATGGACCGGTTTTCCCGGTAATCCGTATTTGGC (site TGGCCGTCTGC),0
6,TGGCCGGCATGGACCGGTTTTCCCGGTAATCCGTATTTGAC (site TGGCCGGCTGA),0.00628
7,TGGCCGGCATGGACCGGTTTTCCCGGTAATCCGTATTTGAC (site TGGCCGGCTGC),0
8,TGGCCGGCATGGACCGGTTTTCCCGGTAATCCGTATTTGAC (site TGGCCGGCTGG),0
9,TGGCCGGCATGGACCGGTTTTCCCGGTAATCCGTATTTGAC (site TGGCCGGCTGT),1.4
10,TGGCCGGCATGGACCGGTTTTCCCGGTAATCCGTATTTGGT (site TGGCCGGCTAC),0.0121
11,TGGCCGGCATGGACCGGTTTTCCCGGTAATCCGTATTTGGT (site TGGCCGGCTCC),0.022
12,TGGCCGGCATGGACCGGTTTTCCCGGTAATCCGTATTTGGT (site TGGCCGGCTGC),0
13,TGGCCGGCATGGACCGGTTTTCCCGGTAATCCGTATTTGGT (site TGGCCGGCTTC),0.0272
14,TGGCTCACATGGACCGGTTTTCCCGGTAATCCGTATTTGTG (site TGGCTCACTCA),0.0236
15,TGGCTTCCATGGACCGGTTTTCCCGGTAATCCGTATTTGCT (site TGGCTTCCTAG),0
16,TGGGAAACATGGACCGGTTTTCCCGGTAATCCGTATTTGGT (site TGGGAAACTAC),1.29
17,TGGGCCACATGGACCGGTTTTCCCGGTAATCCGTATTTGCA (site TGGGCCACTTG),1.45
18,TGGGCGGCATGGACCGGTTTTCCCGGTAATCCGTATTTGGC (site TGGACGGCTGC),1.49
19,TGGGCGGCATGGACCGGTTTTCCCGGTAATCCGTATTTGGC (site TGGCCGGCTGC),0
